# Results reported in ChEMBL document CHEMBL1201862, “PubChem BioAssay data set” (2004).
# Calls of active or inactive are those of the source.
# What was measured:
# [1] = biological target: T1, Voltage-dependent T-type calcium channel subunit alpha-1H (Homo sapiens, UniProt O95180); experiment: Cav3.2 T-type channel inhibitors, synthesized analogs, SAR follow-up, cell-based, synthetic library set 2, HEK293 HH8, Fluo-4 (AID 493023); format: functional
# [2] = biological target: FAD-linked sulfhydryl oxidase ALR (Homo sapiens, UniProt P55789); experiment: inhibitors of human ALR sulfhydryl oxidase, dose response, biochemical, H2O2 detection, luminescence, cherry-pick (AID 493248)
# [3] = biological target: DNA damage-inducible transcript 3 protein (Mus musculus, UniProt P35639); format: functional, Cricetulus griseus
# BJ [4] = experiment: cells; format: functional, cell-based; conditions: Homo sapiens
# BJ [5] = experiment: cytotoxicity toward BJ-TERT fibroblasts, dose response, cell-based, RAS-independent, luminescence (AID 1933); format: functional; conditions: Homo sapiens
# BJ [6] = experiment: cytotoxicity toward BJ-TERT-LT-ST fibroblasts, dose response, cell-based, RAS-independent, luminescence (AID 1935); format: functional; conditions: Homo sapiens;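 further: BJ fibroblasts immortalized with TERT plus LT and ST oncogenes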
# [7] = cytotoxicity toward DRD oncogenic fibroblasts, dose response, cell-based, non-viral oncogenic, luminescence (AID 1934); format: functional; conditions: Homo sapiens
# [8] = biological target: T1, Voltage-dependent T-type calcium channel subunit alpha-1H; experiment: Cav3.2 T-type channel blockers, cell-based, SynthLib3 library, HEK293 Cav3.2, fluorescence (AID 493041); format: functional
# Mucolipin-3 = Mucolipin-3 (Homo sapiens, UniProt Q8TDD5); experiment: Fluorescence counterscreen assay for […] agonists: dose response cell-based high-throughput screening assay to identify agonists of the transient receptor potential channel ML3 (TRPML3). [Related pubchem assays: 1424, 1448 ]; format: functional
# [9] = cytotoxicity in HEK-293T cells, dose response, cytotoxicity control for TCR NF-kB inhibitor project, luminescence, T-cell screen hits (AID 489026); format: functional, cell-based;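 further: cells exposed to compound about 14 hours before the viability readout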
# Ion channel NompC = Ion channel NompC (Danio rerio, UniProt Q7T1G6); experiment: Dose response cell-based high-throughput screening assay for agonists of the transient receptor potential channel N1 (TRPN1). [Related pubchem assays (depositor defined):AID1424, AID1448]; format: functional
# [10] = biological target: T2, Runt-related transcription factor 1/Core-binding factor subunit beta (Homo sapiens, UniProt Q01196+Q13951); experiment: inhibitors of RUNX1 Runt–CBFb-SMMHC binding, biochemical, TR-FRET (AID 1438); format: protein assay
# [11] = biological target: T3, Polyadenylate-binding protein 1 (Homo sapiens, UniProt P11940); experiment: PABP1 MLLE–PAM2 binding inhibitor potency, dose response, biochemical, fluorescence polarization, FITC-PAM2 peptide (AID 602259); format: functional; conditions: read-out: IC50_Mean
# Hexokinase HKDC1 = biological target: T4, Hexokinase HKDC1 (Homo sapiens, UniProt Q2TB90); experiment: HKDC1 hexokinase inhibitors, dose response, biochemical, W721R variant (AID 504729); format: functional
# T4 sequence (Q2TB90 whole entry): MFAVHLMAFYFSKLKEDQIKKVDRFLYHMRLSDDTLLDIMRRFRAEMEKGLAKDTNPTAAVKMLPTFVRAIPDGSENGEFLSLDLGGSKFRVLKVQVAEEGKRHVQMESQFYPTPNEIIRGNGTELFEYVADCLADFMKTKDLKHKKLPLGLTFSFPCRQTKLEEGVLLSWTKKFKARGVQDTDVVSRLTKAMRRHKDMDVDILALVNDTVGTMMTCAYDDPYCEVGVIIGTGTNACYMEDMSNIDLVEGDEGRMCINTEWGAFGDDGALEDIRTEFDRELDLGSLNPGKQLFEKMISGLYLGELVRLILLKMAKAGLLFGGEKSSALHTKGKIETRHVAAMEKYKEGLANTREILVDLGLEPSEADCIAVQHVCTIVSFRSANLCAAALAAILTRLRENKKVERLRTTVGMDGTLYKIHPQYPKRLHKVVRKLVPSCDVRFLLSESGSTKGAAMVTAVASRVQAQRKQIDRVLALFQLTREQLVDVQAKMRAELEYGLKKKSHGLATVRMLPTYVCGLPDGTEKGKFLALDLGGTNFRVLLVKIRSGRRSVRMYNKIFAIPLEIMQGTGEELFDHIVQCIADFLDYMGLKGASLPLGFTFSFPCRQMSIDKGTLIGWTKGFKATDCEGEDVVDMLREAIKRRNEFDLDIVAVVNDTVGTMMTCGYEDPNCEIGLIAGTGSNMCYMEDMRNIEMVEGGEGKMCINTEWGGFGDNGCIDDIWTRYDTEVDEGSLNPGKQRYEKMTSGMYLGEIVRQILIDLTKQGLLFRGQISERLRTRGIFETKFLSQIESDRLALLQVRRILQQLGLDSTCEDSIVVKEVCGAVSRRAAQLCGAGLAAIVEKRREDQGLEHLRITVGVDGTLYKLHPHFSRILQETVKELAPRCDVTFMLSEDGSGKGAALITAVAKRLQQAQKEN
# Protein Tat = Protein Tat (Human immunodeficiency virus type 1 group M subtype B (isolate HXB2)(HIV-1), UniProt P04608); format: functional;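 further: tat binding to TAR RNA read out by fluorescence polarization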
# [12] = biological target: T3, Polyadenylate-binding protein 1; experiment: PABP1 MLLE–PAM2 interaction inhibitors, dose response, miRNA deadenylation inhibitor project, biochemical, fluorescence polarization, Cy5-PAM2 peptide, secondary (AID 602260); format: functional; conditions: read-out: IC50_Mean
# [13] = biological target: T2, Runt-related transcription factor 1/Core-binding factor subunit beta; experiment: inhibitors of RUNX1 Runt–CBFb-SMMHC binding, primary screen, biochemical, FRET, Cerulean-Runt, Venus-CBFb-SMMHC, uHTS (AID 1434); format: protein assay;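 further: partner is the CBFb-SMMHC leukemia fusion protein rather than wild-type CBFb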
# T3 sequence (P11940 whole entry): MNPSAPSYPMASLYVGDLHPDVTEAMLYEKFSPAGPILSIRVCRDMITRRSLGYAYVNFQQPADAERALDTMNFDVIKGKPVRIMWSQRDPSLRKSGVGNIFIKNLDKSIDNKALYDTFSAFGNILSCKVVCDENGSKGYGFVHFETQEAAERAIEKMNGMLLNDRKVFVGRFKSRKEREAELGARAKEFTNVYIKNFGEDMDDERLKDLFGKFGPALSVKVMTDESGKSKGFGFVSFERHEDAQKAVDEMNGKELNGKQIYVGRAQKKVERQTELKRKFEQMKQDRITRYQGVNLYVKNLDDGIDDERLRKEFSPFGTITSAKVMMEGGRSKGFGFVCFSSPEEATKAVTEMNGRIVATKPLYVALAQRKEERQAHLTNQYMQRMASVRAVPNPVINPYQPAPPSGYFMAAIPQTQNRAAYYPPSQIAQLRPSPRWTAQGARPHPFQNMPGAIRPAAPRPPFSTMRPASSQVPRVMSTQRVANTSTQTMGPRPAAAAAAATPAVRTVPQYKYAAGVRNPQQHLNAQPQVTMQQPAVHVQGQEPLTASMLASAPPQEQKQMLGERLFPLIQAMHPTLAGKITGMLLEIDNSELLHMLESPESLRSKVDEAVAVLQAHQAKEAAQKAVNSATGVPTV
# T2 sequence (Q01196 whole entry): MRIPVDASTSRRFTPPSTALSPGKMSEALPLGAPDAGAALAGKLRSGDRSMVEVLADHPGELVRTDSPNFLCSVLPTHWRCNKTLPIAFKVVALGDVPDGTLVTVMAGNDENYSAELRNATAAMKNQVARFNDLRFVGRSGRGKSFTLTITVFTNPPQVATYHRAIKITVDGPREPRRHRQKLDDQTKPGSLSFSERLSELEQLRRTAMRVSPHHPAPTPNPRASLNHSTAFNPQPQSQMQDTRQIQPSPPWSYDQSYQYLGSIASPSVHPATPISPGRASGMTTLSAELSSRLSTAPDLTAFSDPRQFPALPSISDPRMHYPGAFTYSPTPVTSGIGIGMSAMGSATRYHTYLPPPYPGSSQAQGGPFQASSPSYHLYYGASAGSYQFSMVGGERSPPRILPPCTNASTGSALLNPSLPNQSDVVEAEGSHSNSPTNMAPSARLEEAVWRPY
# T2 sequence (Q13951 whole entry): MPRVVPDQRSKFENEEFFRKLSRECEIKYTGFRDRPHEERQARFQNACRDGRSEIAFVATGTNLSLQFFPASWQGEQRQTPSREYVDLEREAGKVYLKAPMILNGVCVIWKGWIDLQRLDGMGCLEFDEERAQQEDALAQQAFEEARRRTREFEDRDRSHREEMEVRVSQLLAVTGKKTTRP
# T1 sequence (O95180 whole entry): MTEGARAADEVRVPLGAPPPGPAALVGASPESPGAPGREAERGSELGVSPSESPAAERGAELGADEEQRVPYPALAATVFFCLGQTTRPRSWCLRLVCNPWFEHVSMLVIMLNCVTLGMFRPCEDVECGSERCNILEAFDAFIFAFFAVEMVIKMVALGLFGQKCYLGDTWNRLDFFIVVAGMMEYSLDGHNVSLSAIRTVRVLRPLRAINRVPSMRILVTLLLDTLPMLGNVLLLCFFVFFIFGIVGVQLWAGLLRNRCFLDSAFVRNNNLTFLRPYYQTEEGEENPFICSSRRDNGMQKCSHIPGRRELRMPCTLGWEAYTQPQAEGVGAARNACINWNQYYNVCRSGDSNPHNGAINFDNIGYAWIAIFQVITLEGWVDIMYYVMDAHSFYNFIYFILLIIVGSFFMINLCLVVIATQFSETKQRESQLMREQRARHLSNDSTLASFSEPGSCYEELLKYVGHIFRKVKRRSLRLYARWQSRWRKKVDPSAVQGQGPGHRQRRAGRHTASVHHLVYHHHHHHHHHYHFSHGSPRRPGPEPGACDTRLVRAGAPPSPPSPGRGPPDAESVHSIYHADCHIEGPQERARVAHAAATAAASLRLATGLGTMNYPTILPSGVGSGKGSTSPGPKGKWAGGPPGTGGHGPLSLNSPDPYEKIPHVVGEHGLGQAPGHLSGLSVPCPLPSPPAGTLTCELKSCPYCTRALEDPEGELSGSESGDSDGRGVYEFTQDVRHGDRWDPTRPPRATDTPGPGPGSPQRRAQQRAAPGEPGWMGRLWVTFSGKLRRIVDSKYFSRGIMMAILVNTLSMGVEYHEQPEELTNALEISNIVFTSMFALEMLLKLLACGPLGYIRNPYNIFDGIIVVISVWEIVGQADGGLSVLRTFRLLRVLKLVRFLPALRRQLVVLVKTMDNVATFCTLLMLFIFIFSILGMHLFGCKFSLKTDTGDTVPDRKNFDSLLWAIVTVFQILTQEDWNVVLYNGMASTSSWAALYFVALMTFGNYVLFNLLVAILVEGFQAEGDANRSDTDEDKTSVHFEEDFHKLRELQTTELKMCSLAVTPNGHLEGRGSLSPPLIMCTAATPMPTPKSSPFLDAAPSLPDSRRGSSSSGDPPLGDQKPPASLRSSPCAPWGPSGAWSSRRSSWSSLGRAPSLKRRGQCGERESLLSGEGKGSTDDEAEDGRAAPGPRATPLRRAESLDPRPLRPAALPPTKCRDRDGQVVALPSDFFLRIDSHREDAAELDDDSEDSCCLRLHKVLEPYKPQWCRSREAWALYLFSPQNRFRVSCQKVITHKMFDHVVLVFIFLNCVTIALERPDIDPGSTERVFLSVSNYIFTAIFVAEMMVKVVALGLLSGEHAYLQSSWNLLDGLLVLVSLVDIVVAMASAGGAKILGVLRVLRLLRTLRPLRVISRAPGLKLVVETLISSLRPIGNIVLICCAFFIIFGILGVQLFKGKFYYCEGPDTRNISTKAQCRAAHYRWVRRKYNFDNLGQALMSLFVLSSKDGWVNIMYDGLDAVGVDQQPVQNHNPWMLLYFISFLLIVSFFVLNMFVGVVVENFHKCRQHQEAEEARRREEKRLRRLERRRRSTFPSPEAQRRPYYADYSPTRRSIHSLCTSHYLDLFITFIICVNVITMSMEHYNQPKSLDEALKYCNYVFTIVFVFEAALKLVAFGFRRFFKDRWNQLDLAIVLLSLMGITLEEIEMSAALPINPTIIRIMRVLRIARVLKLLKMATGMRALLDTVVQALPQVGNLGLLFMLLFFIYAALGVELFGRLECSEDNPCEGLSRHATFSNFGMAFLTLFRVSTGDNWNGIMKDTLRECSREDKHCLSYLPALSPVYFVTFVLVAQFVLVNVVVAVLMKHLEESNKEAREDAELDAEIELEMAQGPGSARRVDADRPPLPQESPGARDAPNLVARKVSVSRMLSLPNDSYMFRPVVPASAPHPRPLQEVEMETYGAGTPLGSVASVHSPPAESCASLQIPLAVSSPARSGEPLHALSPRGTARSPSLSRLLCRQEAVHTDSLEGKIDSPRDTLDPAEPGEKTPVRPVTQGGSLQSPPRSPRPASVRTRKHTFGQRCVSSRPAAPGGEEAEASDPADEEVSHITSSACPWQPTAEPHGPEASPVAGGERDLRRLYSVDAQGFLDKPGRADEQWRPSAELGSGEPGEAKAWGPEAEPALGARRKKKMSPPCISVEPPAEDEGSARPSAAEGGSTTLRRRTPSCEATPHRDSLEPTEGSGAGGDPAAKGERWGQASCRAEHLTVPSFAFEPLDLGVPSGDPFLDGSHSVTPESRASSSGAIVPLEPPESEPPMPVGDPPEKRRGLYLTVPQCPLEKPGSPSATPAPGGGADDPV
# DNA damage-inducible transcript 3 protein, sequence (P35639 whole entry): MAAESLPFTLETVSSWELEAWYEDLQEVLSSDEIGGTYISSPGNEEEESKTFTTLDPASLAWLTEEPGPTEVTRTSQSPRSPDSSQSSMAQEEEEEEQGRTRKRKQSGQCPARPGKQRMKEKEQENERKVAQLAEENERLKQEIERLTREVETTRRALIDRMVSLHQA
# Protein Tat, sequence (P04608 whole entry): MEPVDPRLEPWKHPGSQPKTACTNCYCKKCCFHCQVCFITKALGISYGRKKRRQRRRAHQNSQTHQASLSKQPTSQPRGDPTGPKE
# FAD-linked sulfhydryl oxidase ALR, sequence (P55789 whole entry): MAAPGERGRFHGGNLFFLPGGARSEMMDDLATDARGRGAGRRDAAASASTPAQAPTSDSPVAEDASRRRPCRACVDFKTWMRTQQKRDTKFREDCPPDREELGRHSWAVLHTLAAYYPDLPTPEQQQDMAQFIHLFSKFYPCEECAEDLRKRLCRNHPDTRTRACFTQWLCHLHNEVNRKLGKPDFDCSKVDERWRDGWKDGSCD
# Mucolipin-3, sequence (Q8TDD5 whole entry): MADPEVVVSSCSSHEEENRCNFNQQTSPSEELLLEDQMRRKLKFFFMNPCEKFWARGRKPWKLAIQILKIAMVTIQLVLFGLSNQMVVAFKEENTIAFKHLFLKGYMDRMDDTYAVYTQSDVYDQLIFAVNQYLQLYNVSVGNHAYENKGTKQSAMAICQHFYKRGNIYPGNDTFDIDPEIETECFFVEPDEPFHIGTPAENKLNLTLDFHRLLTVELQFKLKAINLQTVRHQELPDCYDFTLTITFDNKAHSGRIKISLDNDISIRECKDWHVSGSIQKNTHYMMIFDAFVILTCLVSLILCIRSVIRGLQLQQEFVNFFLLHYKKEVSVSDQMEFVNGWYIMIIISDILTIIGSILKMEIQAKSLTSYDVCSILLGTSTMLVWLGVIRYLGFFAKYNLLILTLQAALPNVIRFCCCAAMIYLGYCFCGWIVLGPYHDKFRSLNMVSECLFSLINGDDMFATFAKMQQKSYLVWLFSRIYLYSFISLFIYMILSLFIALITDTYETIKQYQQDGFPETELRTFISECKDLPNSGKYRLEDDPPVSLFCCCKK
smiles,measurement,setting,value
O=C(COc1ccc(F)cc1Cl)N[C@@H]1CCCN(Cc2ccccc2)C1,EC50,[1],10 µM (active)
COc1ccc(N/N=C(\C=N\O)C(=O)c2ccc(OC)cc2)cc1,AC50,[2],0.009 µM (active)
same,Absolute IC50 (CHOP),[3],10 µM
same,EC50,BJ [4],49 µM (active)
same,EC50,BJ [5],1.56 µM (inconclusive)
same,EC50,BJ [6],2.41 µM (inconclusive)
same,EC50,[7],1.15 µM (active)
CCC(C)CN1CCC[C@H](NC(=O)COc2ccc(F)c(Cl)c2)C1 (some centres not stated),EC50,[8],10 µM (active)
O=C(Nc1ccc(S(=O)(=O)Nc2ccccc2)cc1)c1ccc(CN2CCOCC2)cc1,EC50,Mucolipin-3,> 29.9 µM (not active)
same,IC50,[9],48.1 µM (inactive)
same,EC50,Ion channel NompC,> 29.9 µM (inactive)
COc1ccc(N2C3=C(CC4=C2CCCC4=O)C(=O)CCC3)cc1,IC50,[10],17.7 µM (active)
same,IC50,[11],> 66 µM (inactive)
same,IC50,Hexokinase HKDC1,8.05 µM (active)
same,IC50,Protein Tat,> 100 µM (active)
same,IC50,[12],> 66 µM (inactive)
same,IC50,[13],0.372 µM (active)
